The values below come from patent EP0369088A1, “Use of zinc acexamate in the prophylaxis of gastropathy induced by non-steroidal anti-inflammatory drugs” (LABORATORIOS VINAS S.A., priority 1988, dated 1990).

Type in all cases: in vivo, rat (Sprague Dawley)
In one assay the test system is Aspirin-induced lesions. Description: Aspirin-induced gastric lesions in the rat, protective effect of ZAC. Conditions: aspirin two doses of 200 mg/kg p.o. 12 hours apart, mean ± SD, n 10, p<0.01; for Macroscopic index: control 3.4 ± 0.2; for Microscopic index: scale 0 to 5, control 3.0 ± 0.3. An excerpt:
(§1) In view of the more or less serious gastric intolerance to the different anti-inflammatory drugs, the possibility of inhibiting this side effect by way of the protective action of zinc […]) has been considered. Therefore, the protective effect of ZAC against gastric lesions induced by the most characteristic NSAIDs has been studied. The animal of election was the rat (Sprague Dawley), which was sacrificed after treatment with ZAC and NSAID. The stomach was extirpated, and macro and microscopic evaluations were made. The macroscopic evaluation was made following the method of Adami (1964, Arch. Int. Pharmacodyn., 147: 113-45) with slight modifications, consisting of evaluating the gravity and extension of the lesions, using a points system evaluating the lesions according to the number and/or size thereof. 0 - no lesion 1 - irritation or presence of a hemorrhagic area 2 - from 1 to 5 small ulcers 3 - many small ulcers (more than 5) or 1 large one 4 - many large ulcers 5 - perforated ulcer The overall value of the lesions is obtained by adding up the score of the lesions determined. Half of the stomachs of each animal group was taken for hystological processing, the microscopic lesions being valued according to a scale of 0 to 5, 0 being a lesion-free mucous membrane and 5 representing multiple erosions with hemorrhagic subfusions. two doses of 200 mg/kg p.o. were administered spaced apart by 12 hours. In both cases, ZAC was tested at dosages of: 50, 100 and 150 mg/kg and a control group received water.

Assay [1] relates to Ibuprofen-induced lesions. Description: Ibuprofen-induced gastric lesions in the rat, protective effect of ZAC. Conditions: ibuprofen single 200 mg/kg dose, mean ± SD; for Macroscopic index: n 10, control 2.4 ± 0.3; for Microscopic index: scale 0 to 5, n 5, control 2.8 ± 0.4.
Source text: as §1, with “a single” for “two doses of”, “dose was administered.” for “p.o. were administered spaced apart by 12 hours.”

The subject of assay [2] is Phenylbutazone-induced lesions. Description: Phenylbutazone-induced gastric lesions in the rat, protective effect of ZAC. As to conditions: phenylbutazone total dose 80 mg/kg in two halves 2 hours apart, mean ± SD, n 10, control 2.8 ± 0.4, p<0.01. The text has this:
In view of the more or less serious gastric intolerance to the different anti-inflammatory drugs, the possibility of inhibiting this side effect by way of the protective action of zinc acexamate (ZAC) has been considered. Therefore, the protective effect of ZAC against gastric lesions induced by the most characteristic NSAIDs has been studied. The animal of election was the rat (Sprague Dawley), which was sacrificed after treatment with ZAC and NSAID. The stomach was extirpated, and macro and microscopic evaluations were made. The macroscopic evaluation was made following the method of Adami (1964, Arch. Int. Pharmacodyn., 147: 113-45) with slight modifications, consisting of evaluating the gravity and extension of the lesions, using a points system evaluating the lesions according to the number and/or size thereof. 0 - no lesion 1 - irritation or presence of a hemorrhagic area 2 - from 1 to 5 small ulcers 3 - many small ulcers (more than 5) or 1 large one 4 - many large ulcers 5 - perforated ulcer
The overall value of the lesions is obtained by adding up the score of the lesions determined.
An additional, anti-ulcer activity index was calculated for phenylbutazone, obtained by expressing the lesion indexes as an inhibition percentage relative to the control group. The dose-response curve was determined from the percentages and the theoretical ED₅₀ was determined from the curve.
A total dose of 80 mg/kg of phenylbutazone was administered, half at the start of the experiment and the other half after 2 hours. The ZAC doses used were 75, 150 and 300 mg/kg. The animals were sacrificed 4 hours after the last ZAC administration.

In assay [3] the test system is Indomethacin-induced lesions. The experiment in a line: Indomethacin-induced gastric lesions in the rat, protective effect of ZAC. As to conditions: ZAC 200 mg/kg, indomethacin total 20 mg/kg in two doses of 10 mg/kg 12 hours apart, mean ± SD, p<0.01.
Source text: as §1, with “two doses of 200 mg/kg p.o. were administered spaced apart by 12 hours. In both cases, ZAC was tested at dosages of: 50, 100 and 150 mg/kg and a control group received water.” left out

Consider zinc acexamate [ZAC], for which the Macroscopic index with Aspirin-induced lesions (ZAC 50 mg/kg) is 2.3 ± 0.3; with Aspirin-induced lesions (ZAC 100 mg/kg), 2.1 ± 0.3; in the assay with Aspirin-induced lesions (ZAC 150 mg/kg), 1.9 ± 0.3; in assay [1] (ZAC 50 mg/kg, p<0.01), 1.6 ± 0.4; in assay [1] (ZAC 100 mg/kg, p<0.01) it was 1.7 ± 0.3; in assay [1] (ZAC 150 mg/kg, p<0.01) it was 1.5 ± 0.2. Moreover, the Macroscopic index is reported as 1.3 ± 0.5 in assay [2] (ZAC 75 mg/kg); 0.4 ± 0.3 in assay [2] (ZAC 150 mg/kg); 2.0 ± 0.2 in assay [2] (ZAC 300 mg/kg); 1.8 ± 0.3 in assay [3] (n 10, control 4.3 ± 0.4). Besides, the Microscopic index in the assay on Aspirin-induced lesions (ZAC 50 mg/kg) was determined as 1.8 ± 0.2; in the assay with Aspirin-induced lesions (ZAC 100 mg/kg), 2.0 ± 0.2; in the assay with Aspirin-induced lesions (ZAC 150 mg/kg), 2.3 ± 0.2; in assay [1] (ZAC 50 mg/kg, p<0.05), 2.2 ± 0.2; in assay [1] (ZAC 100 mg/kg, NS), 2.4 ± 0.2 NS; in assay [1] (ZAC 150 mg/kg, p<0.01) it was 2.0 ± 0.03. Besides, the Microscopic index in assay [3] (scale 0 to 5, n 5, control 4.0 ± 0.7) is on record as 5 2.1 ± 0.2.
